Measurements taken from patent publication US6344219B1, “Chinese drug composition for treatment of peptic ulcer and preparation thereof” (priority 1995, dated 2002).

Columns and labels:
pyloric ligation ulcer = assay: Effect to the ulcer of pyloric ligation (Shay's method); type: in vivo, Rats(SD); conditions: rats; dose 200
Description: The experiment is conducted following Shay's method. Fifty rats, 190+20 g, male and female half and half, were randomly divided into five groups according to weight and sex and were administered as 1-1 for three days. Food was abstained but water was freely fed before 48 hr of the operation. After 2 hr of the last administration, operation of pyloric ligation was conducted then both food and water were abstained. After 48 hr the rats were executed and their gastric juice was collected for measuring the volume, and determining the free acid, total acid and pepsin following Metle's method.

[1] = tested on: gastric ulcer induced by Reserpine; assay: Gastric ulcer of rats induced by Reserpine; type: in vivo, Rats(SD); conditions: 200.0 mg/kg ig once daily for three days, Reserpine 5 mg/kg sc
Description: Fifty rats, 180±18 g, male and female half and half, were divided into five groups and were treated with drug ig once daily for three days. After abstaining food for 24 hr Reserpine 5 mg/kg was injected subcutaneously. The rats were executed by decapitation after 18 hr and the gastric ulcer was examined as the same method of 1-1.

[2] = tested on: stress ulcer of rats induced by water soaking; assay: Effect to stress ulcer (Takagi's method, water soaking); type: in vivo, Rats(SD); conditions: 100 mg/kg qd × 2
Description: The model was established following Takagi's method. Takagi, et al., The Effects of Drugs on the production and Recovery Processes of the Stress Ulcer, 18:9-18 (1968); and Takagi et al., A New Method For The Production of Chronic Gastric Ulcer in Rats and The Effect of Several Drugs on its Healing, Japan J. Pharmacol Japan J. Pharmacol 19:418-426 (1969). Fifty rats, 159+13 g, male and female half and half, were randomly divided into five groups according to sex and weight and were administered with drugs daily twice, once both in the morning and afternoon for two days. From the beginning of the experiments, food was abstained but water was freely fed. One hour after the last administration, rats were bound on a board and were soaked in a thermostatic flowing water bath at […] for 18 hr then were executed by decapitation. Take out the stomach by abdominal section and ligate the pylorus first then inject 10 ml of 1% formaldehyde solution through cardia of stomach and ligate the cardia. After formalizing the stomach in 1% formaldehyde solution for 10 min, the stomach was cut along the greater curvature with scissor, rinse with normal saline solution for three times and absorb with filter paper, then flatten it on a glass plate and examine the degree of mucosa ulcer and count the number using magnifier. […]

[3] = tested on: ulcer induced by Histamine; assay: Ulcer of mice induced by Histamine; type: in vivo, Mice(ICR); conditions: 200 mg/kg bid × 2 ig, Histamine 80 mg/kg ip
Description: Forty mice, male 23±2 g, were divided into five groups, and were administrated once both in the morning and afternoon of everyday by ig. Mice were abstained to feed food for 24 hr except water, then administered Histamine 80 mg/kg, ip, after abstaining food for 8 hr were executed. Take out the stomachs and examine ulcer index using the same method as 1-1.

[4] = tested on: chronic gastric ulcer caused by acetic acid burn; assay: Chronic gastric ulcer of rats caused by acetic acid burn (adapted Takagi's method); type: in vivo, Rats(SD); conditions: 200 mg/kg × 12 day ig qd
Description: The experiment was conducted using adapted Takagi's method. Fifty rats, 165+15 g, male and female half and half, after abstaining food without abstaining water for 24 hr, were primary anesthetized with ether and their skin were sterilized as regular method. After abdominal section the stomach was gently pulled out. A small glass tube with 0.5 cm inner diameter and 3 cm length was inserted into the stomach near the lesser curvature stomach gland of pylorus using middle finger to resist against the opposite stomach wall. 0.1 ml acetic acid was injected into stomach through the glass tube. After 30 sec counting with stopwatch, acetic acid was sucked out and the stomach was rinsed with sterilized normal saline for three times. Remove out the glass tube and absorb the normal saline on its external surface with sterilized filter paper the stomach was put into the abdomen then sew up the wound and sterilize. The rats was randomly divided into 5 groups according to sex and weight on the second day of operation. The rats were administered with drug ig qd×12 day, after abstaining food overnight then were executed by decapitation. The ulcer volumes were measured using the method of injection ink with a micro syringe.

CNC(=C[N+](=O)[O-])NCCSCc1ccc(CN(C)C)o1.Cl [Ranitidine, Ranitidine hydrochloride]
ulcer index (pyloric ligation ulcer): 1.22 ± 1.44
rate of inhibition (%) [1]: 78.2%
ulcer index (x ± SD) [1]: 7.6 ± 2.0
rate of inhibition (%) [2]: 41.5%
ulcer index (x ± SD) [2]: 2.14 ± 0.46
rate of inhibition (%) [3]: 87.8%
ulcer index (x ± SD) [3]: 1.4 ± 3.5
rate of inhibition (%) [4]: 50.7%
ulcer volume (μl, × ± SD) [4]: 1.72 ± 1.46 µL
